Read-outs that look alike come from different tables or passages of the source.
Tests used:
[1] = test system: MH-linked RyR1 mutant; set-up: method as in PMID 29674523; settings: HEK293 cells; cited from earlier work
[2] = target: T1, RyR1 (Sus scrofa, UniProt P16960); set-up: RyR1 in skeletal SR membranes; from tissue; host or cells: porcine longissimus dorsi muscle (heavy SR vesicles); method as in PMID 27760856; settings: NIH Clinical Collection screen; cited from earlier work
[3] = target: T1, RyR1; set-up: RyR1 in skeletal SR membranes; from tissue; host or cells: porcine longissimus dorsi muscle (heavy SR vesicles); method as in PMID 27760856; settings: skeletal HSR, previous study; cited from earlier work
[4] = target: T2, RyR2 (Sus scrofa, UniProt A0A5G2R1W3); test: FLT-FRET between D-FKBP and A-CaM bound to RyR2 in cardiac SR membranes (dose-response); type: binding, porcine; set-up: RyR1 in skeletal SR membranes, and RyR2 in cardiac SR membranes; from tissue; host or cells: porcine cardiac left ventricle (crude SR vesicles); settings: RyR2 samples, 30 nM Ca2+
Method: Necessary counter-screens to our pathological RyR1 conditions include evaluating compound effects in healthy conditions and on the cardiac isoform, RyR2. Using the same FRET assay as in HTS, we tested the dose response of key Hits from this screen and the previously HTS-identified RyR1 inhibitor, chloroxine, on healthy (5 mM GSH) and pathological (5 mM GSSG) conditions for both RyR1 in skeletal SR membranes, and RyR2 in cardiac SR membranes.
Skeletal HSR and cardiac CSR (0.4 mg/ml) membranes were independently pre-incubated with 60 nM D-FKBP, for 90 min, at 37 °C, in a solution containing 150 mM KCl, 5 mM GSH, 0.1 mg/mL BSA, 1 µg/mL Aprotinin/Leupeptin, 1 mM DTT and 20 mM PIPES (pH 7.0). To remove unbound D-FKBP, the SR membranes were spun down at 110,000 × g for 20 min, and then resuspended to 1 mg/mL (skeletal HSR) and 2 mg/mL (cardiac CSR) in binding buffer consisting of 150 mM KCl, 5 mM GSSG, 0.1 mg/mL BSA, 1μg/mL Aprotinin/Leupeptin and 20 mM PIPES, pH 7.0. These samples were then incubated with indicated [A-CaM] for 30 min at 22 °C in binding buffer containing 0.065 mM CaCl2 to give 30 nM free Ca^2+ in the presence of 1 mM EGTA (calculated by MaxChelator). This labeled SR sample was applied to the assay plates in 5 μL aliquots using a Multidrop™ Combi reagent dispenser (Thermo Scientific) with a standard-tube. An additional set of the assay plates were loaded with skeletal HSR or cardiac CSR labeled with only D-FKBP (no added A-CaM).
FLT measurements were conducted in a top-read FLT-PR designed and built by Fluorescence Innovations, Inc[33]. AF488 donor fluorescence was excited with a 473-nm microchip laser from Concepts Research Corporation (Belgium, WI), and emission was acquired with 490-nm long-pass and 517/20-nm band-pass filters (Semrock, Rochester, NY).
FLT waveforms for each well were fit based on a one-exponential decay function using least-squares minimization global-analysis software (Fluorescence Innovations, Inc.), as previously described[19],[33]. FRET efficiency (E) was determined as the fractional decrease of donor FLT (τD), due to the presence of acceptor fluorophore (τDA), using the following equation:1 E=1−τDA/τD,

[5] = target: T2, RyR2; test: [3H]ryanodine binding to cardiac SR vesicles; type: biochemical, porcine; set-up: RyR1 in skeletal SR membranes, and RyR2 in cardiac SR membranes; from tissue; host or cells: porcine cardiac left ventricle (crude SR vesicles); settings: micromolar compound, significant only with CaM at 30 nM Ca2+ and only without CaM at 30 μM Ca2+
Method: (§1) To evaluate the functional impact of compounds identified through our FRET-based screen, we first used [^3H]ryanodine binding assays. The level of [^3H]ryanodine binding to RyRs in SR membranes is a well-established index of the RyR channel activity. Given the role of CaM binding in our FRET readout, we investigated whether CaM influences the functional effect of the Hit compounds by carrying out [^3H]ryanodine binding assays in the absence and presence of CaM (300 nM).
Crude sarcoplasmic reticulum (CSR) vesicles were isolated from porcine longissimus dorsi muscle and porcine cardiac left ventricle tissue by differential centrifugation of homogenized tissue. […] Immediately prior to the fluorescence or [^3H]ryanodine binding studies described below, the SR vesicles were stripped of residual endogenous CaM by incubation with a peptide derived from the CaM binding domain of myosin light chain kinase, followed by sedimentation.
In 96-well plates, HSR vesicles (1 mg/ml) and cardiac CSR vesicles (3 mg/mL) were pre-incubated with 0.02% DMSO or Hit compound, with or without 300 nM CaM, for 30 min at 22 °C in a solution containing 150 mM KCl, 5 mM GSSG, 1 µg/mL Aprotinin/Leupeptin, 1 mM EGTA, and 65 µM or 1.02 mM CaCl2 (as determined by MaxChelator to yield 30 nM or 30 μM of free Ca^2+, respectively), 0.1 mg/mL BSA and 20 mM K-PIPES (pH 7.0). […]

[6] = target: T1, RyR1; test: [3H]ryanodine binding to skeletal SR vesicles; type: biochemical, porcine; set-up: RyR1 in skeletal SR membranes, and RyR2 in cardiac SR membranes; from tissue; host or cells: porcine longissimus dorsi muscle (heavy SR vesicles)
Method: as §1
Crude sarcoplasmic reticulum (CSR) vesicles were isolated from porcine longissimus dorsi muscle and porcine cardiac left ventricle tissue by differential centrifugation of homogenized tissue. HSR vesicles, which are enriched in RyR1, were isolated by fractionation of crude skeletal SR vesicles using a discontinuous sucrose gradient. All vesicles were flash-frozen and stored at −80 °C. Immediately prior to the fluorescence or [^3H]ryanodine binding studies described below, the SR vesicles were stripped of residual endogenous CaM by incubation with a peptide derived from the CaM binding domain of myosin light chain kinase, followed by sedimentation.
In 96-well plates, HSR vesicles (1 mg/ml) and cardiac CSR vesicles (3 mg/mL) were pre-incubated with 0.02% DMSO or Hit compound, with or without 300 nM CaM, for 30 min at 22 °C in a solution containing 150 mM KCl, 5 mM GSSG, 1 µg/mL Aprotinin/Leupeptin, 1 mM EGTA, and 65 µM or 1.02 mM CaCl2 (as determined by MaxChelator to yield 30 nM or 30 μM of free Ca^2+, respectively), 0.1 mg/mL BSA and 20 mM K-PIPES (pH 7.0). Non-specific and maximal [^3H]ryanodine binding to SR were separately assessed by addition of 40 µM non-radioactively labeled ryanodine or 5 mM Adenylyl-imidodiphosphate, respectively. Such control samples were each distributed over 4 wells/plate. Binding of [^3H]ryanodine (10 and 15 nM for cardiac and skeletal SR, respectively) was determined after a 3-h incubation (37 °C) and filtration through grade GF/B Glass Microfiber filters (Brandel Inc., Gaithersburg, MD, US) using a Brandel Harvester. In 4 mL of Ecolite Scintillation cocktail (MP biomedicals, Solon, OH, USA), [^3H] on filter was counted using a Beckman LS6000 scintillation counter (Fullerton, CA).

T1 sequence (P16960 whole entry): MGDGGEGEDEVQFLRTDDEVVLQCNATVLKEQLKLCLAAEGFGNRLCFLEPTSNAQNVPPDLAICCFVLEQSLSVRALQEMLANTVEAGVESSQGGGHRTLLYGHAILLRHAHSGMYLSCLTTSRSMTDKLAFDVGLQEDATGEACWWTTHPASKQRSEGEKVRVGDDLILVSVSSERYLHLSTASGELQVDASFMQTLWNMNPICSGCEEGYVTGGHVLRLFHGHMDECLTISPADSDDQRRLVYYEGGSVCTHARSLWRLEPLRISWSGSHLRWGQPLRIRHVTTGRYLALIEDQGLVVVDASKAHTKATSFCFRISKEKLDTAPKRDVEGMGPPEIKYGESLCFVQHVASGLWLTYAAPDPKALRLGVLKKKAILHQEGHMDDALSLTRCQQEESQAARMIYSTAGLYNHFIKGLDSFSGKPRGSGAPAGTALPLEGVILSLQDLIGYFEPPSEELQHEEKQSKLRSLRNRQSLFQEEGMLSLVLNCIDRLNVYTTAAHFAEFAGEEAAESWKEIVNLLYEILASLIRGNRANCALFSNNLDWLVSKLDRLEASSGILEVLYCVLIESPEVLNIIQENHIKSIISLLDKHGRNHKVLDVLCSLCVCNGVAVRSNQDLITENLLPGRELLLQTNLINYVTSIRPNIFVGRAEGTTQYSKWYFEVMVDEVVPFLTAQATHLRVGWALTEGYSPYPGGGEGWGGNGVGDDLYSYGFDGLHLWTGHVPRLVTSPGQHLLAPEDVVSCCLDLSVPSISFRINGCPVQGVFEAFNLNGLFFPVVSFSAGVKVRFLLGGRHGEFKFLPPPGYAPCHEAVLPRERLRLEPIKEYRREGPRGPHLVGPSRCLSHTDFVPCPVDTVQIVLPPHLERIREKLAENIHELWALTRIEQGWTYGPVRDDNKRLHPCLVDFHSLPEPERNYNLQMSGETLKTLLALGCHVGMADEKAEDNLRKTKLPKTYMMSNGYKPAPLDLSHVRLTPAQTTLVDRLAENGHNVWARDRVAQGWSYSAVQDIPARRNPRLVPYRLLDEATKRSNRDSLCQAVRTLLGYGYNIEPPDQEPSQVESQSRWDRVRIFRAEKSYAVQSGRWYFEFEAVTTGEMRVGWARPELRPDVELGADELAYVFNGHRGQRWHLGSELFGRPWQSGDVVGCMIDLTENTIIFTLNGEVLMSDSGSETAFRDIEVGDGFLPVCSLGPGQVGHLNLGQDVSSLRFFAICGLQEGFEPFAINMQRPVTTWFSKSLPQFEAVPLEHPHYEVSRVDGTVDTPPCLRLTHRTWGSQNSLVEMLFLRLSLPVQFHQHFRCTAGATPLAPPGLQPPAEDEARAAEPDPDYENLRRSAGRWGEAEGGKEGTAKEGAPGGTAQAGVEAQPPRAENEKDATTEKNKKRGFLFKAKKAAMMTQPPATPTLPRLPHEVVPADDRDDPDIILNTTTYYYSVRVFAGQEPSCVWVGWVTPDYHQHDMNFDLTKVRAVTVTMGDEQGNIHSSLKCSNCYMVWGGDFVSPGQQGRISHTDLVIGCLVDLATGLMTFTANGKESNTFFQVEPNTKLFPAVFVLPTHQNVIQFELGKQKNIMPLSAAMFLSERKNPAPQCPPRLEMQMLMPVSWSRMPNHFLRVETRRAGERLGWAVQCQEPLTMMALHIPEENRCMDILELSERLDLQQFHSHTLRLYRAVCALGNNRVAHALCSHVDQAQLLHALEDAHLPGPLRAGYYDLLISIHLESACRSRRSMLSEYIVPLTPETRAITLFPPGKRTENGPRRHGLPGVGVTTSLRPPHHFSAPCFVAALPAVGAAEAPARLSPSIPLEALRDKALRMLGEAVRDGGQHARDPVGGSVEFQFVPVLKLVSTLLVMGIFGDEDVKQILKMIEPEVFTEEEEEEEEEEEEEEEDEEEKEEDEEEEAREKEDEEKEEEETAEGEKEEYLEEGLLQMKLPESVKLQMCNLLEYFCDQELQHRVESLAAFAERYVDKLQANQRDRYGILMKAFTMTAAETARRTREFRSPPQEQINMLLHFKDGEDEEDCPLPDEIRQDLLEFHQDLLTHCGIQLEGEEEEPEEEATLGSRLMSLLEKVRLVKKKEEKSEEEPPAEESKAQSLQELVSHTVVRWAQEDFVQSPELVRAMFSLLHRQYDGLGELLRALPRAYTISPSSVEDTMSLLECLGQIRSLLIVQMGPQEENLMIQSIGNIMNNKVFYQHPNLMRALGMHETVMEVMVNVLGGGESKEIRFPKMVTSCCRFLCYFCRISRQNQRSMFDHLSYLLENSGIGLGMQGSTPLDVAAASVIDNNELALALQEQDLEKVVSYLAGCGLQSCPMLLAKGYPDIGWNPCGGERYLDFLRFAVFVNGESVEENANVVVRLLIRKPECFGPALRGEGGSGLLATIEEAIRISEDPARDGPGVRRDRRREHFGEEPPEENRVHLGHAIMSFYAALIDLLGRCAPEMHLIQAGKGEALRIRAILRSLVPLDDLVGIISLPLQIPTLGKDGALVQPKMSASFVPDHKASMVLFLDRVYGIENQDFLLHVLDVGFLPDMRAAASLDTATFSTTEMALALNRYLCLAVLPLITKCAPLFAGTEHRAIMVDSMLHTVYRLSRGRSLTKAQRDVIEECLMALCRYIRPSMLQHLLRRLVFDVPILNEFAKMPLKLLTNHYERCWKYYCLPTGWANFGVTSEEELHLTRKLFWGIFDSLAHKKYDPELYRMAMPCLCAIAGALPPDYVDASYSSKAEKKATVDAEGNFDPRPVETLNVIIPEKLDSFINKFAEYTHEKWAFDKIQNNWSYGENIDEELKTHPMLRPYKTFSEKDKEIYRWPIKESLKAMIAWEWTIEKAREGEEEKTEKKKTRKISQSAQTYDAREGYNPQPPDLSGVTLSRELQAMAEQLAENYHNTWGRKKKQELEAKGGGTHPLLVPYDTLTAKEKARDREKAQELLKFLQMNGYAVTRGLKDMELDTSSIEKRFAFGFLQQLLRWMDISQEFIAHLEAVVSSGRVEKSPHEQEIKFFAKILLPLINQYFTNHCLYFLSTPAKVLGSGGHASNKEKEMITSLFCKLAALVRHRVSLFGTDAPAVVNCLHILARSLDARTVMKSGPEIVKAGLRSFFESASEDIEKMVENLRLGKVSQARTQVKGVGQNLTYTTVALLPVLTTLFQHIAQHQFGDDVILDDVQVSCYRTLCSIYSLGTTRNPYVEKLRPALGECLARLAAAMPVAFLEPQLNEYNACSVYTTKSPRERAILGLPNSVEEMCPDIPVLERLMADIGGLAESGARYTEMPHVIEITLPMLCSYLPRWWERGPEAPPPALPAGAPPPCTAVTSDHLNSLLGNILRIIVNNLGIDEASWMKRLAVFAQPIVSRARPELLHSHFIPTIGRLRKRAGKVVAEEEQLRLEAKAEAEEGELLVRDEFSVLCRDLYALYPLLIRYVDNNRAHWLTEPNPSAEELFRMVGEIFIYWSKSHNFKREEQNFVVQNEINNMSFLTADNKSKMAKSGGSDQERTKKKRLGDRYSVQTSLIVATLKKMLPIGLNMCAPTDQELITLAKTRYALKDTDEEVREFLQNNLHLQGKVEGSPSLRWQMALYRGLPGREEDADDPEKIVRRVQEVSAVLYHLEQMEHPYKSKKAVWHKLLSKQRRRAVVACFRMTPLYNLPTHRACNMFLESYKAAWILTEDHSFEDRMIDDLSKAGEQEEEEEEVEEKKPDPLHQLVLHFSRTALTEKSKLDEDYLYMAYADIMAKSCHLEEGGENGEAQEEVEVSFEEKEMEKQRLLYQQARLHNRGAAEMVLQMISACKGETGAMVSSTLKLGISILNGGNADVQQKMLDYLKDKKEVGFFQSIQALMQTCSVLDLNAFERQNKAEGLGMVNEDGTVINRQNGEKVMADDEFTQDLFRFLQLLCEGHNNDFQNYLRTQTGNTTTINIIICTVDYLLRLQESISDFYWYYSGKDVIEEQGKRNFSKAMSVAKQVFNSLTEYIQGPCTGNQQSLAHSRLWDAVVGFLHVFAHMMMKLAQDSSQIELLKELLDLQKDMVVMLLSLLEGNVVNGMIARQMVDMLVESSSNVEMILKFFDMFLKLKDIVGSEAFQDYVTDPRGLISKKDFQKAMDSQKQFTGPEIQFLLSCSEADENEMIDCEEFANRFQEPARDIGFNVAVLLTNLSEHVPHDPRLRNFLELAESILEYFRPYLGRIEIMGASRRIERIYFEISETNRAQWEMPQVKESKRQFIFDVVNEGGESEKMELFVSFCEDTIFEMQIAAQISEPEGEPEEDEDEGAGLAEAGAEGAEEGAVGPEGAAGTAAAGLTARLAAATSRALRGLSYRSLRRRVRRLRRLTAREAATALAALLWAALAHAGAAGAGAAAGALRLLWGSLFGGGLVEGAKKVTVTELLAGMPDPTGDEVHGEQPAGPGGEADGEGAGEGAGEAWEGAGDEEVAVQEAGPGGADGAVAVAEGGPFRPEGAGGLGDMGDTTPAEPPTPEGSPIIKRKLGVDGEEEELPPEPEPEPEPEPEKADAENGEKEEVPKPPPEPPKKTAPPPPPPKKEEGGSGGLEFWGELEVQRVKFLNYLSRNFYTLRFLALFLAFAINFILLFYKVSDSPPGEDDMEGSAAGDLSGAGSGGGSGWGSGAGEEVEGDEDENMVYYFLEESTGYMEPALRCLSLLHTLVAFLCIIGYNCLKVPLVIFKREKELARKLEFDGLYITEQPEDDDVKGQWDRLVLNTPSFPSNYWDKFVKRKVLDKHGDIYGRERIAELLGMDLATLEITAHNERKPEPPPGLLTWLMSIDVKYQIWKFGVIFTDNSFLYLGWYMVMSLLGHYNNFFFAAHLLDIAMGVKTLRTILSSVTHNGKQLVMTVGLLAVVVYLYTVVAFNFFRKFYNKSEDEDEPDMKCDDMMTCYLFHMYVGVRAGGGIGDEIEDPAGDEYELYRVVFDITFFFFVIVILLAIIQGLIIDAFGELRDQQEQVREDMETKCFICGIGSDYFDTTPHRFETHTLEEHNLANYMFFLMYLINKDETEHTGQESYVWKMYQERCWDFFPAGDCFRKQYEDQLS

Row | Effect on FRET [4] | Effect on [3H]ryanodine binding [5] | Maximum decrease in [3H]ryanodine binding ([6]; 1 μM compound, 30 μM Ca2+) | Effect on [3H]ryanodine binding ([6]; 20 μM compound, 30 nM Ca2+, only in the absence of CaM) | Effect on [3H]ryanodine binding ([6]; 30 μM Ca2+, presence and absence of 0.3 μM CaM, 0-20 μM compound) | Decrease in [3H]ryanodine binding ([6]; ≤ 10 μM compound, 30 nM Ca2+, with or without CaM) | Structure (SMILES) | Effect on readout of ER Ca2+ phenotypic screen [1] | Effect on FRET in previous 384-well screen [2] | Decrease in [3H]ryanodine binding [3]
1 | did not alter FRET | – | – | – | – | – | Oc1c(Cl)cc(Cl)c2cccnc12 [chloroxine] | increased RyR1 activity | increased FRET | 20%
2 | – | only inhibits | ~ 20% | dramatically increased | biphasic effect | > 50% | O=c1c(O)c(-c2cc(O)c(O)c(O)c2)oc2cc(O)cc(O)c12 [myricetin] | – | – | –
